The values below come from patent US20200181104A1, “SSAO INHIBITORS AND USES THEREOF” (METACRINE, INC., priority 2018, published 2020).

Counter-ions that a name gives are not always drawn.

This assay concerns the target T1, Recombinant Human SSAO/VAP-1/AOC3 (Homo sapiens, UniProt Q16853).
T1 construct: purchased R&D systems 3957-AO
T1 sequence (Q16853 1-763): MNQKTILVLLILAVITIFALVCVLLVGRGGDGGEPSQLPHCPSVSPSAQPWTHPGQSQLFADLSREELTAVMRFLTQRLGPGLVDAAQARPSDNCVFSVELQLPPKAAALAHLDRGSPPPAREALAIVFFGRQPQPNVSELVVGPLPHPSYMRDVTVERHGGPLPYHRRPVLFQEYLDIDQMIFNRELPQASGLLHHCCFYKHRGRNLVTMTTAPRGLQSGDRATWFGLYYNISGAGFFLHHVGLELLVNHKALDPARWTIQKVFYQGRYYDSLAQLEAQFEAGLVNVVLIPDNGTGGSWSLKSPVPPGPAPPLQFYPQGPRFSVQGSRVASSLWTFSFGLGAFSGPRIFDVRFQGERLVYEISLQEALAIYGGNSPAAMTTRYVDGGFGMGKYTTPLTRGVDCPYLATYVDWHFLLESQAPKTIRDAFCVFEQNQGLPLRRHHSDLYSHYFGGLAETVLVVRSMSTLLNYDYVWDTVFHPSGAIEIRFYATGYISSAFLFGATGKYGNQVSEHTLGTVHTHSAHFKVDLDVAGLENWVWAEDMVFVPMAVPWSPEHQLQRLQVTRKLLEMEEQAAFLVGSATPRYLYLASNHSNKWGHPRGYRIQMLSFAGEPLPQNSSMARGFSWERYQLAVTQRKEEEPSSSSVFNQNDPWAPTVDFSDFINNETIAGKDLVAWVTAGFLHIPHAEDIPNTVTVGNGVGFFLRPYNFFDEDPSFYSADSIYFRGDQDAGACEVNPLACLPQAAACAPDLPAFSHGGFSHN
Put plainly: Human Semicarbazide-Sensitive Amine Oxidase (SSAO) Assay. Type of assay: biochemical. The conditions noted are these: recombinant enzyme, 30 minutes preincubation at 37° C., benzylamine substrate, Amplex Ultra Red/HRP fluorescence. An outline of the steps:
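IC50 from kinetic Amplex Ultra Red/HRP fluorescence (ex 544, em 590 nm, 30-120 min) after benzylamine addition. Beforehand, 6-10 compound dilutions were preincubated 30 min at 37 °C with recombinant human SSAO in 50 mM HEPES (enzyme working concentration 2.5 μg/ml).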
A word on the IC50: it is the concentration that inhibits the measured activity by half. Take `COc1cccc(CNC(=O)C23CCC(c4ccc(OC/C(=C/F)CN)cc4)(CC2)CC3)n1` [Compound 2.130, (E)-4-(4-((2-(aminomethyl)-3-fluoroallyl)oxy)phenyl)-N-((6-methoxypyridin-2-yl)methyl)bicyclo[2.2.2]octane-1-carboxamide]: the IC50 is no more than 0.01 µM. Then `NC/C(=C\F)COc1ccc(C23CCC(C(=O)N4CCCC4)(CC2)CC3)cc1` [Compound 2.25, (E)-(4-(4-((2-(aminomethyl)-3-fluoroallyl)oxy)phenyl)bicyclo [2.2.2]octan-1-yl)(pyrrolidin-1-yl)methanone], with no more than 0.01 µM; and `NC/C(=C\F)COc1ccc(C23CCC(C(=O)N4CCCCC4)(CC2)CC3)cc1` [Compound 2.24, (E)-(4-(4-((2-(amino-methyl)-3-fluoroallyl)oxy)phenyl)bicyclo [2.2.2]octan-1-yl)(piperidin-1-yl)methanone], with no more than 0.01 µM. On to `COc1cccc(CCNC(=O)C23CCC(c4ccc(OC/C(=C/F)CN)cc4)(CC2)CC3)c1` [Compound 2.119, (E)-4-(4-((2-(aminomethyl)-3-fluoroallyl)oxy)phenyl)-N-(3-methoxyphenethyl)bicyclo [2.2.2]octane-1-carboxamide], for which the IC50 was no more than 0.01 µM. As to `NC/C(=C\F)COc1ccc(C23CCC(C(=O)NCc4cncc(C(F)(F)F)c4)(CC2)CC3)cc1` [Compound 2.159, (E)-4-(4-((2-(aminomethyl)-3-fluoroallyl)oxy)phenyl)-N-((5-(trifluoromethyl)pyridin-3-yl)methyl)bicyclo[2.2.2]octane-1-carboxamide], the IC50 is no more than 0.01 µM.

For `NC/C(=C\F)COc1ccc(C23CCC(C(=O)N4CCN(CC(F)(F)F)CC4)(CC2)CC3)cc1` [Compound 2.30, (E)-(4-(4-((2-(aminomethyl)-3-fluoroallyl)oxy)phenyl)bicyclo [2.2.2]octan-1-yl)(4-(2,2,2-trifluoroethyl)piperazin-1-yl)methanone], the IC50 is no more than 0.01 µM. For the compound `CC(C)(C)NC(=O)C12CCC(c3ccc(OC/C(=C/F)CN)cc3)(CC1)CC2` [Compound 2.49, (E)-4-(4-((2-(aminomethyl)-3-fluoroallyl)oxy)phenyl)-N-(tert-butyl)bicyclo[2.2.2]octane-1-carboxamide], the IC50 was no more than 0.01 µM. With `COC1(CNC(=O)C23CCC(c4ccc(OC/C(=C/F)CN)cc4)(CC2)CC3)CC1` [Compound 2.144, (E)-4-(4-((2-(aminomethyl)-3-fluoroallyl)oxy)phenyl)-N-((1-methoxycyclopropyl)methyl) bicyclo[2.2.2]octane-1-carboxamide], the IC50 is no more than 0.01 µM. `COCCOCCOCCOCCNC(=O)C12CCC(c3ccc(OC/C(=C/F)CN)cc3)(CC1)CC2` [Compound 2.51, (E)-4-(4-((2-(aminomethyl)-3-fluoroallyl)oxy)phenyl)-N-(2,5,8,11-tetraoxatridecan-13-yl)bicyclo[2.2.2]octane-1-carboxamide]: the half-inhibitory concentration (IC50) is no more than 0.01 µM. Under `NC/C(=C\F)COc1ccc(C23CCC(C(=O)NC4CCOCC4)(CC2)C3)cc1` [Compound 4.01, (E)-4-(4-((2-(Aminomethyl)-3-fluoroallyl)oxy)phenyl)-N-(tetrahydro-2H-pyran-4-yl)bicyclo[2.2.1]heptane-1-carboxamide Hydrochloride] stands no more than 0.01 µM. Then `NC/C(=C\F)COc1ccc(C23CCC(NC(=O)C4CCOCC4)(CC2)CC3)cc1` [Compound 7, (E)-N-(4-(4-((2-(Aminomethyl)-3-fluoroallyl)oxy)phenyl)bicyclo[2.2.2]octan-1-yl)tetrahydro-2H-pyran-4-carboxamide Hydrochloride], with no more than 0.01 µM; and `NC/C(=C\F)COc1ccc(C23CCC(C(=O)NCC4(O)CCOCC4)(CC2)CC3)cc1` [Compound 2.35, (E)-4-(4-((2-(aminomethyl)-3-fluoroallyl)oxy)phenyl)-N-((4-hydroxytetrahydro-2H-pyran-4-yl)methyl)bicyclo[2.2.2]octane-1-carboxamide], with no more than 0.01 µM. `NC/C(=C\F)COc1ccc(C23CCC(C(=O)NCc4ccccc4)(CC2)CC3)cc1` [Compound 2.80, (E)-4-(4-((2-(aminomethyl)-3-fluoroallyl)oxy)phenyl)-N-benzylbicyclo[2.2.2]octane-1-carboxamide]: the IC50 was no more than 0.01 µM. `NC/C(=C\F)COc1ccc(C23CCC(C(=O)NC4CC5CCC(C4)O5)(CC2)CC3)cc1` (stereo not drawn) [Compound 2.84, (E)-4-(4-((2-(aminomethyl)-3-fluoroallyl)oxy)phenyl)-N-(8-oxabicyclo[3.2.1]octan-3-yl)bicyclo[2.2.2]octane-1-carboxamide]: the IC50 is no more than 0.01 µM. Under `CNC(=O)C12CCC(c3ccc(OC/C(=C/F)CN)c(C)c3)(CC1)CC2` [Compound 2, (E)-4-(4-((2-(aminomethyl)-3-fluoroallyl)oxy)-3-methylphenyl)-N-methylbicyclo[2.2.2]octane-1-carboxamide] stands no more than 0.01 µM. Take `CNC(=O)C12CCC(c3ccc(OC/C(=C/F)CN)cc3)(CC1)C2` [Compound 4, (E)-4-(4-((2-(Aminomethyl)-3-fluoroallyl)oxy)phenyl)-N-methylbicyclo[2.2.1]heptane-1-carboxamide Hydrochloride]: the IC50 is no more than 0.01 µM. Regarding `CC(C)(O)CCNC(=O)C12CCC(c3ccc(OC/C(=C/F)CN)cc3)(CC1)CC2` [Compound 2.89, (E)-4-(4-((2-(aminomethyl)-3-fluoroallyl)oxy)phenyl)-N-(3-hydroxy-3-methylbutyl)bicyclo[2.2.2] octane-1-carboxamide], the IC50 was no more than 0.01 µM.

As to `Cc1n[nH]c(C)c1CNC(=O)C12CCC(c3ccc(OC/C(=C/F)CN)cc3)(CC1)CC2` [Compound 2.81, (E)-4-(4-((2-(aminomethyl)-3-fluoroallyl)oxy)phenyl)-N-((3,5-dimethyl-1H-pyrazol-4-yl)methyl)bicyclo[2.2.2]octane-1-carboxamide], the IC50 was no more than 0.01 µM. As for `NC/C(=C\F)COc1ccc(C23CCC(C(=O)NC4CCCOC4)(CC2)CC3)cc1` (stereo not drawn) [Compound 2.64, (E)-4-(4-((2-(aminomethyl)-3-fluoroallyl)oxy)phenyl)-N-(tetrahydro-2H-pyran-3-yl)bicyclo[2.2.2]octane-1-carboxamide], the IC50 was no more than 0.01 µM. As to `NC/C(=C\F)COc1ccc(C23CCC(C(=O)NCC(F)(F)CO)(CC2)CC3)cc1` [Compound 2.74, (E)-4-(4-((2-(aminomethyl)-3-fluoroallyl)oxy)phenyl)-N-(2,2-difluoro-3-hydroxypropyl)bicyclo[2.2.2] octane-1-carboxamide], the IC50 was no more than 0.01 µM. Turning to `CNC(=O)[C@H]1C2CC3CC1C[C@@](c1ccc(OC/C(=C/F)CN)cc1)(C3)C2` (single isomer, unassigned) [Compound 6, anti-5-(4-(((E)-2-(Aminomethyl)-3-fluoroallyl)oxy)phenyl)-N-methyladamantane-2-carboxamide Hydrochloride], the IC50 is no more than 0.01 µM. Under `NC/C(=C\F)COc1ccc(C23CCC(C(=O)NCc4ccncn4)(CC2)CC3)cc1` [Compound 2.155, (E)-4-(4-((2-(aminomethyl)-3-fluoroallyl)oxy)phenyl)-N-(pyrimidin-4-ylmethyl)bicyclo[2.2.2]octane-1-carboxamide] stands no more than 0.01 µM. Then `NC/C(=C\F)COc1ccc(C23CCC(C(=O)N4CC(OCCO)C4)(CC2)CC3)cc1` [Compound 2.44, (E)-(4-(4-((2-(aminomethyl)-3-fluoroallyl)oxy)phenyl)bicyclo [2.2.2]octan-1-yl)(3-(2-hydroxyethoxy)azetidin-1-yl)methanone], with no more than 0.01 µM. On to `CC(C)(NC(=O)C12CCC(c3ccc(OC/C(=C/F)CN)cc3)(CC1)CC2)C1CCOCC1` [Compound 2.108, (E)-4-(4-((2-(aminomethyl)-3-fluoroallyl)oxy)phenyl)-N-(2-(tetrahydro-2H-pyran-4-yl)propan-2-yl)bicyclo[2.2.2]octane-1-carboxamide], for which the IC50 is no more than 0.01 µM. Then `COC(C)(C)CCNC(=O)C12CCC(c3ccc(OC/C(=C/F)CN)cc3)(CC1)CC2` [Compound 2.138, (E)-4-(4-((2-(aminomethyl)-3-fluoroallyl)oxy)phenyl)-N-(3-methoxy-3-methylbutyl)bicyclo[2.2.2] octane-1-carboxamide], with no more than 0.01 µM; and `CO[C@H]1CCCN(C(=O)C23CCC(c4ccc(OC/C(=C/F)CN)cc4)(CC2)CC3)C1` [Compound 2.110, (S,E)-(4-(4-((2-(aminomethyl)-3-fluoroallyl)oxy)phenyl)bicyclo [2.2.2]octan-1-yl)(3-methoxypiperidin-1-yl)methanone], with no more than 0.01 µM. Turning to `NC/C(=C\F)COc1ccc(C23CCC(C(=O)N4C5CCC4COC5)(CC2)CC3)cc1` [Compound 2.67, (E)-(4-(4-((2-(aminomethyl)-3-fluoroallyl)oxy)phenyl)bicyclo [2.2.2]octan-1-yl)(3-oxa-8-azabicyclo[3.2.1]octan-8-yl)methanone], the IC50 was no more than 0.01 µM.
